pIC50: −log10 of the molar value. “And” between values parts separate entries of the source, which are not always exact repeats. Equal values may be shown once.
System: 699152-130-R-J1-PDC complex spheroid growth
Test: Anticancer human tumor 699152-130-R-J1-PDC patient-derived pancreatic carcinoma cell line growth inhibition [AhR]
Conditions: for viability, T/C: stronger effect = lower value
Summary of the method: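 Complex tumor spheroids co-cultured with HUVEC and human MSC stroma; AhR antagonists tested in combination with standard-of-care and investigational agents. Top concentration at or near clinical Cmax (else 10 microM), half-log dilutions; growth expressed as percent test/control.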

[1] = curve of first compound, second compound 0.1 µM
[2] = curve of first compound, second compound 0.316 µM
[3] = curve of first compound, second compound 1 µM
[4] = curve of first compound, second compound 3.16 µM
[5] = curve of first compound, second compound 10 µM
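Also: compound exposure lasted 7 days after spheroids had grown for 3 days.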

In the case of `O=C(C=Cc1cccc(S(=O)(=O)Nc2ccccc2)c1)NO`, the viability, T/C (compound 0.0316 µM) was 107% and 91.2% and 102%, the viability, T/C (compound 0.1 µM) was 114% and 101% and 110% and the viability, T/C (compound 0.316 µM) was 106% and 114% and 116%. For the same molecule, the viability, T/C (compound 1 µM) was 106% and 116% and 112%, the viability, T/C (compound 3.16 µM) was 106% and 107% and 116% and the viability, T/C (compound 10 µM) was 86.2% and 96.8% and 77.4%. It also gave a pIC50 (curve of compound) of under 5.00.

Molecule `CC1(C)CCC(CN2CCN(c3ccc(C(=O)NS(=O)(=O)c4ccc(NCC5CCOCC5)c([N+](=O)[O-])c4)c(Oc4cnc5[nH]ccc5c4)c3)CC2)=C(c2ccc(Cl)cc2)C1` + Cc1ccccc1N=Nc1ccc(NC(=O)c2ccnn2C)c(C)c1 has a pIC50 [1] of under 5.00, a pIC50 [2] of under 5.00 and a pIC50 [3] of under 5.00. The pIC50 [4] was under 5.00, the pIC50 [5] was under 5.00 and the viability, T/C (second compound 0.1 µM, first compound 0.0316 µM) was 93.7%. It also gave a viability, T/C (second compound 0.1 µM, first compound 0.1 µM) of 102%, a viability, T/C (second compound 0.1 µM, first compound 0.316 µM) of 103% and a viability, T/C (second compound 0.1 µM, first compound 1 µM) of 95.9%. For the same molecule, the viability, T/C (second compound 0.1 µM, first compound 3.16 µM) was 101%, the viability, T/C (second compound 0.1 µM, first compound 10 µM) was 68% and the viability, T/C (second compound 0.316 µM, first compound 0.0316 µM) was 93.2%. It also gave a viability, T/C (second compound 0.316 µM, first compound 0.1 µM) of 103%, a viability, T/C (second compound 0.316 µM, first compound 0.316 µM) of 95.9% and a viability, T/C (second compound 0.316 µM, first compound 1 µM) of 95.5%. For the same molecule, the viability, T/C (second compound 0.316 µM, first compound 3.16 µM) was 93.5%, the viability, T/C (second compound 0.316 µM, first compound 10 µM) was 74% and the viability, T/C (second compound 1 µM, first compound 0.0316 µM) was 103%. It also gave a viability, T/C (second compound 1 µM, first compound 0.1 µM) of 101%, a viability, T/C (second compound 1 µM, first compound 0.316 µM) of 104% and a viability, T/C (second compound 1 µM, first compound 1 µM) of 102%. It also gave a viability, T/C (second compound 1 µM, first compound 3.16 µM) of 101%, a viability, T/C (second compound 1 µM, first compound 10 µM) of 65.8% and a viability, T/C (second compound 3.16 µM, first compound 0.0316 µM) of 107%. For the same molecule, the viability, T/C (second compound 3.16 µM, first compound 0.1 µM) was 95.2%, the viability, T/C (second compound 3.16 µM, first compound 0.316 µM) was 118% and the viability, T/C (second compound 3.16 µM, first compound 1 µM) was 102%. It also gave a viability, T/C (second compound 3.16 µM, first compound 3.16 µM) of 86.5%, a viability, T/C (second compound 3.16 µM, first compound 10 µM) of 71.8% and a viability, T/C (second compound 10 µM, first compound 0.0316 µM) of 114%. The viability, T/C (second compound 10 µM, first compound 0.1 µM) was 124%, the viability, T/C (second compound 10 µM, first compound 0.316 µM) was 118% and the viability, T/C (second compound 10 µM, first compound 1 µM) was 113%. For the same molecule, the viability, T/C (second compound 10 µM, first compound 3.16 µM) was 108% and the viability, T/C (second compound 10 µM, first compound 10 µM) was 68.2%.

In the case of `CCN(c1cc(-c2ccc(CN3CCOCC3)cc2)cc(C(=O)NCc2c(C)cc(C)[nH]c2=O)c1C)C1CCOCC1` + Cc1cncc(-c2nc(NCCc3c[nH]c4ccccc34)c3ncn(C(C)C)c3n2)c1, the pIC50 [1] was under 5.52, the pIC50 [2] was under 5.52 and the pIC50 [3] was under 5.52. For the same molecule, the pIC50 [4] was under 5.52, the pIC50 [5] was over 8.02 and the viability, T/C (second compound 0.1 µM, first compound 0.00949 µM) was 101%. It also gave a viability, T/C (second compound 0.1 µM, first compound 0.03 µM) of 110%, a viability, T/C (second compound 0.1 µM, first compound 0.0949 µM) of 113% and a viability, T/C (second compound 0.1 µM, first compound 0.3 µM) of 120%. It also gave a viability, T/C (second compound 0.1 µM, first compound 0.949 µM) of 98.2%, a viability, T/C (second compound 0.1 µM, first compound 3 µM) of 120% and a viability, T/C (second compound 0.316 µM, first compound 0.00949 µM) of 88.9%. It also gave a viability, T/C (second compound 0.316 µM, first compound 0.03 µM) of 94.4%, a viability, T/C (second compound 0.316 µM, first compound 0.0949 µM) of 112% and a viability, T/C (second compound 0.316 µM, first compound 0.3 µM) of 98.9%. For the same molecule, the viability, T/C (second compound 0.316 µM, first compound 0.949 µM) was 103%, the viability, T/C (second compound 0.316 µM, first compound 3 µM) was 98.7% and the viability, T/C (second compound 1 µM, first compound 0.00949 µM) was 121%. For the same molecule, the viability, T/C (second compound 1 µM, first compound 0.03 µM) was 116%, the viability, T/C (second compound 1 µM, first compound 0.0949 µM) was 116% and the viability, T/C (second compound 1 µM, first compound 0.3 µM) was 131%. It also gave a viability, T/C (second compound 1 µM, first compound 0.949 µM) of 119%, a viability, T/C (second compound 1 µM, first compound 3 µM) of 112% and a viability, T/C (second compound 3.16 µM, first compound 0.00949 µM) of 110%. For the same molecule, the viability, T/C (second compound 3.16 µM, first compound 0.03 µM) was 106%, the viability, T/C (second compound 3.16 µM, first compound 0.0949 µM) was 114% and the viability, T/C (second compound 3.16 µM, first compound 0.3 µM) was 116%. It also gave a viability, T/C (second compound 3.16 µM, first compound 0.949 µM) of 114%, a viability, T/C (second compound 3.16 µM, first compound 3 µM) of 112% and a viability, T/C (second compound 10 µM, first compound 0.00949 µM) of 28.7%. It also gave a viability, T/C (second compound 10 µM, first compound 0.03 µM) of 30.9%, a viability, T/C (second compound 10 µM, first compound 0.0949 µM) of 28.9% and a viability, T/C (second compound 10 µM, first compound 0.3 µM) of 23.5%. The viability, T/C (second compound 10 µM, first compound 0.949 µM) was 22.4% and the viability, T/C (second compound 10 µM, first compound 3 µM) was 11.3%.

Reference: PubChem BioAssay AID1919001 (Molecular Pharmacology Branch, DTP, NCI, 2023)
